Experimental data from US11866414B2, “Substituted heterocyclic compounds” (BRISTOL-MYERS SQUIBB COMPANY, priority 2021, dated 2024).
Where two headings read alike, the source gives them in different places.

Columns and labels:
[1] = Brain penetration in vivo assay (brain and plasma exposure)
Protocol: Brain Penetration In Vivo Assay
A pharmacokinetic study was performed using C57BL6 wild-type mice (n=3 per experiment) to determine brain and plasma exposure of compounds of the invention. The compound was administered orally in a solution of 5% ETHANOL: 90% PEG 300; 5% TPGS at 5 mL/kg for a final concentration of 10 mg/kg. Nice were euthanized 1 hour post-dose and plasma and brain were collected and frozen for analysis. Brain tissues were homogenized in a 1:1 volume of blank C57BL6 mouse plasma. Concentrations of the compound in plasma and brain homogenate were determined by LC-MS analysis.

Caco-2 cells [2] = conditions: human, Caco-2, 2 h, 3 μM, pH 7.4
Caco-2 cells [3] = assay: Bidirectional permeability assay in Caco-2 cells; conditions: for Efflux Ratio: Caco-2, 3 μM, pH 7.4, 2 hours; for CACO2 (A-B): permeability coefficient apical-to-basolateral, 3 μM, pH 7.4, 0.5% BSA, 2 hours, 37° C.

| Ratio of exposure in brain to plasma (mouse) (1 h, 10 mpk, po) [1] | CACO2 (A-B) (Caco-2 cells [2]) [nm/s] | SMILES | Efflux Ratio (Caco-2 cells [3]) | CACO2 (A-B) (Caco-2 cells [3]) [nm/s] |
| --- | --- | --- | --- | --- |
| 0.3 | 368 | [2H]C([2H])([2H])NC(=O)c1nnc(NC(=O)C2CC2)cc1Nc1cccc(-c2cnn(CC(F)F)n2)c1OC [Example 3, 6-cyclopropaneamido-4-({3-[2-(2,2-difluoroethyl)-2H-1,2,3-triazol-4-yl]-2-methoxyphenyl}amino)-N—(^2H3)methylpyridazine-3-carboxamide] | – | – |
| 0.1 | 340 | [2H]C([2H])([2H])NC(=O)c1nnc(NC(=O)C2CC2)cc1Nc1ccc(F)c(-c2cnn(CC)n2)c1OC [Example 10, 6-cyclopropaneamido-4-{[3-(2-ethyl-2H-1,2,3-triazol-4-yl)-4-fluoro-2-methoxyphenyl]amino}-N—(^2H3)methylpyridazine-3-carboxamide] | – | – |
| 0.7 | 173 | [2H]C([2H])([2H])NC(=O)c1nnc(NC(=O)C2CC2)cc1Nc1cc(F)cc(-c2cnn(C3CC3)n2)c1OC [Example 12, 6-cyclopropaneamido-4-{[3-(2-cyclopropyl-2H-1,2,3-triazol-4-yl)-5-fluoro-2-methoxyphenyl]amino}-N—(^2H3)methylpyridazine-3-carboxamide] | – | – |
| – | 63 | [2H]C([2H])([2H])NC(=O)c1nnc(NC(=O)C2CC2)cc1Nc1cc(Cl)cc(-c2cnn(CC)n2)c1OC [Example 15, 4-{[5-chloro-3-(2-ethyl-2H-1,2,3-triazol-4-yl)-2-methoxyphenyl]amino}-6-cyclopropaneamido-N—(^2H3)methylpyridazine-3-carboxamide] | – | – |
| – | 392 | [2H]C([2H])([2H])NC(=O)c1nnc(NC(=O)C2CC2)cc1Nc1ccc(F)c(-c2cnn(C3CC3)n2)c1OC [Example 16, 6-cyclopropaneamido-4-{[3-(2-cyclopropyl-2H-1,2,3-triazol-4-yl)-4-fluoro-2-methoxyphenyl]amino}-N—(^2H3)methylpyridazine-3-carboxamide] | – | – |
| – | 654 | [2H]C([2H])([2H])NC(=O)c1nnc(NC(=O)C2CC2)cc1Nc1ccc(F)c(-c2cnn(C)n2)c1OC [Example 18, 6-cyclopropaneamido-4-{[4-fluoro-2-methoxy-3-(2-methyl-2H-1,2,3-triazol-4-yl)phenyl]amino}-N—(^2H3)methylpyridazine-3-carboxamide] | – | – |
| – | 482 | [2H]C([2H])([2H])NC(=O)c1nnc(NC(=O)C2CC2)cc1Nc1cccc(-c2cnn(C([2H])([2H])[2H])n2)c1OC [Example 52, 6-cyclopropaneamido-4-({2-methoxy-3-[2-(^2H3)methyl-2H-1,2,3-triazol-4-yl]phenyl}amino)-N—(^2H3)methylpyridazine-3-carboxamide] | – | – |
| – | 180 | [2H]C([2H])([2H])NC(=O)c1nnc(NC(=O)C2CC2)cc1Nc1cccc(-c2cnn(C3CCC3)n2)c1OC [Example 54, 4-{[3-(2-cyclobutyl-2H-1,2,3-triazol-4-yl)-2-methoxyphenyl]amino}-6-cyclopropaneamido-N—(^2H3)methylpyridazine-3-carboxamide] | – | – |
| – | 507 | [2H]C([2H])([2H])NC(=O)c1nnc(NC(=O)C2CC2)cc1Nc1ccc(C2CC2)c(-c2cnn(C)n2)c1OC [Example 55, 6-cyclopropaneamido-4-{[4-cyclopropyl-2-methoxy-3-(2-methyl-2H-1,2,3-triazol-4-yl)phenyl]amino}-N—(^2H3)methylpyridazine-3-carboxamide] | – | – |
| – | 432 | [2H]C([2H])([2H])NC(=O)c1nnc(NC(=O)C2CC2)cc1Nc1cccc(-c2cnn(C)n2)c1OC(F)F [Example 56, 6-cyclopropaneamido-4-{[2-(difluoromethoxy)-3-(2-methyl-2H-1,2,3-triazol-4-yl)phenyl]amino}-N—(^2H3)methylpyridazine-3-carboxamide] | – | – |

Continued, compound first:

| SMILES | Ratio of exposure in brain to plasma (mouse) (1 h, 10 mpk, po) [1] | CACO2 (A-B) (Caco-2 cells [2]) [nm/s] | Efflux Ratio (Caco-2 cells [3]) | CACO2 (A-B) (Caco-2 cells [3]) [nm/s] |
| --- | --- | --- | --- | --- |
| [2H]C([2H])([2H])NC(=O)c1nnc(NC(=O)[C@@H]2CC23CC3)cc1Nc1cccc(-c2cnn(C)n2)c1OC [Example 13, 4-{[2-methoxy-3-(2-methyl-2H-1,2,3-triazol-4-yl)phenyl]amino}-N—(^2H3)methyl-6-[(1R)-spiro[2.2]pentane-1-amido]pyridazine-3-carboxamide] | 0.4 | – | 0.7 | 251 |
| [2H]C([2H])([2H])NC(=O)c1nnc(NC(=O)C2CC2)cc1Nc1nccc(-c2cnn(C3CC3)n2)c1OC [Example 14, 6-cyclopropaneamido-4-{[4-(2-cyclopropyl-2H-1,2,3-triazol-4-yl)-3-methoxypyridin-2-yl]amino}-N—(^2H3)methylpyridazine-3-carboxamide] | 0.8 | 446 | – | – |
| [2H]C([2H])([2H])NC(=O)c1nnc(NC(=O)N2CCC2)cc1Nc1cccc(-c2cnn(C)n2)c1OC [Example 51, 6-[(azetidine-1-carbonyl)amino]-4-{[2-methoxy-3-(2-methyl-2H-1,2,3-triazol-4-yl)phenyl]amino}-N—(^2H3)methylpyridazine-3-carboxamide] | – | – | 0.9 | 429 |
| [2H]C([2H])([2H])NC(=O)c1nnc(NC(=O)C2CC2)cc1Nc1cccc(-c2cnn(C3COC3)n2)c1OC [Example 53, 6-cyclopropaneamido-4-({2-methoxy-3-[2-(oxetan-3-yl)-2H-1,2,3-triazol-4-yl]phenyl}amino)-N—(^2H3)methylpyridazine-3-carboxamide] | – | – | 0.7 | 425 |
| [2H]C([2H])([2H])NC(=O)c1nnc(NC(=O)N(C)CC)cc1Nc1nccc(-c2cnn(C)n2)c1OC [Example 58, 6-{[ethyl(methyl)carbamoyl]amino}-4-{[3-methoxy-4-(2-methyl-2H-1,2,3-triazol-4-yl)pyridin-2-yl]amino}-N—(^2H3)methylpyridazine-3-carboxamide] | – | – | 0.6 | 314 |
| [2H]C([2H])([2H])NC(=O)c1nnc(NC(=O)N(C)C(C)C)cc1Nc1nccc(-c2cnn(C)n2)c1OC [Example 59, 4-{[3-methoxy-4-(2-methyl-2H-1,2,3-triazol-4-yl)pyridin-2-yl]amino}-N—(^2H3)methyl-6-{[methyl(propan-2-yl)carbamoyl]amino}pyridazine-3-carboxamide] | – | – | 0.8 | 351 |
| [2H]C([2H])([2H])NC(=O)c1nnc(NC(=O)C2CC2)cc1Nc1nccc(-c2cnn(C)n2)c1OC(F)F [Example 60, 6-cyclopropaneamido-4-{[3-(difluoromethoxy)-4-(2-methyl-2H-1,2,3-triazol-4-yl)pyridin-2-yl]amino}-N—(^2H3)methylpyridazine-3-carboxamide] | – | 340 | – | – |
